Laboratory results: patent US6737383B1, “Herbicidal oxadiazolidines” (priority 1999, dated 2004)

How the values were obtained:
bedstraw = assay: Test B pre/postemergence bedstraw; type: in vivo, Galium aparine
Outline: (§1)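 Test chemicals in a non-phytotoxic solvent mixture with surfactant were sprayed preemergence onto planted seeds and postemergence onto plants 2 to 18 cm tall (1- to 4-leaf stage). After twelve to sixteen days in a greenhouse, injury was visually rated against untreated controls from 0 (no effect) to 10 (complete control).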

blackgrass = assay: Test B pre/postemergence blackgrass; type: in vivo, Alopecurus myosuroides
Outline: as §1

surinam grass = assay: Test B pre/postemergence surinam grass; type: in vivo, Brachiaria decumbens
Outline: as §1

corn = assay: Test B pre/postemergence corn; type: in vivo, Zea mays
Outline: as §1

giant foxtail = assay: Test B pre/postemergence giant foxtail; type: in vivo, Setaria faberii
Outline: as §1

morningglory = assay: Test B pre/postemergence morningglory; type: in vivo, Ipomoea hederacea
Outline: as §1

pigweed = assay: Test B pre/postemergence pigweed; type: in vivo, Amaranthus retroflexus
Outline: as §1

rape = assay: Test B pre/postemergence rape; type: in vivo, Brassica napus
Outline: as §1

soybean = assay: Test B pre/postemergence soybean; type: in vivo, Glycine max
Outline: as §1

sugar beet = assay: Test B pre/postemergence sugar beet; type: in vivo, Beta vulgaris
Outline: as §1

velvetleaf = assay: Test B pre/postemergence velvetleaf; type: in vivo, Abutilon theophrasti
Outline: as §1

purple nutsedge = assay: Test B pre/postemergence purple nutsedge; type: in vivo, Cyperus rotundus
Outline: as §1

rice = assay: Test B flood test rice; type: in vivo, Oryza sativa
Outline: (§2)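 Each value is a visual injury score relative to controls, with 10 meaning complete control and 0 no effect. Evaluation took place twelve to sixteen days after the 2-leaf-stage plants were treated and kept in the greenhouse.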

smallflower flatsedge = assay: Test B flood test smallflower flatsedge; type: in vivo, Cyperus difformis
Outline: as §2

duck salad = assay: Test B flood test duck salad; type: in vivo, Heteranthera limosa
Outline: as §2

bamyardgrass = assay: Test B flood test barnyardgrass; type: in vivo, Echinochloa crus-galli
Outline: as §2

[1] = Postemergence, Rate 250 g/ha, scale 0 to 10, 0 no effect, 10 complete control
[2] = Postemergence, Rate 1000 g/ha, scale 0 to 10 (0 no effect, 10 complete control)
[3] = Preemergence, Rate 125 g/ha, scale 0 to 10 (0 no effect, 10 complete control)
[4] = Preemergence, Rate 250 g/ha, scale of 0 to 10 where 0 is no effect and 10 is complete control
[5] = Preemergence, Rate 500 g/ha, scale 0 (no effect) to 10 (complete control)
[6] = Rate 125 g/ha, Postemergence, scale 0 to 10, 0 no effect, 10 complete control
[7] = Rate 500 g/ha, Postemergence, 0 to 10 scale (0 no effect, 10 complete control)
[8] = Rate 1000 g/ha, Preemergence, scale 0 to 10 (0 no effect, 10 complete control)
[9] = Rate 125 g/ha, Postemergence section (flood test species), scale 0 to 10, 0 no effect, 10 complete control
[10] = Rate 500 g/ha, Postemergence section of Table B, 0 to 10 scale (0 no effect, 10 complete control)
[11] = flood test, listed under Postemergence, Rate 250 g/ha, scale 0 to 10, 0 no effect, 10 complete control

## CC(C)N(C(=O)n1oc(=O)n(-c2ccc(OC(F)(F)F)cc2)c1=O)C1=CCOCC1 [Compound 13]
bedstraw; [1]
  Bedstraw plant response rating: 0
bedstraw; [2]
  Bedstraw plant response rating: 0
bedstraw; [3]
  Plant response rating, Bedstraw: 0
bedstraw; [4]
  Plant response rating, Bedstraw: 0
bedstraw; [5]
  Bedstraw plant response rating: 0
bedstraw; [6]
  Bedstraw plant response rating: 0
bedstraw; [7]
  Bedstraw plant response rating: 0
bedstraw; [8]
  Plant response rating, Bedstraw: 3
blackgrass; [1]
  Blackgrass plant response rating: 3
blackgrass; [2]
  Blackgrass plant response rating: 8
blackgrass; [3]
  Plant response rating, Blackgrass: 0
blackgrass; [4]
  Plant response rating, Blackgrass: 0
blackgrass; [5]
  Blackgrass plant response rating: 6
blackgrass; [6]
  Blackgrass plant response rating: 0
blackgrass; [7]
  Blackgrass plant response rating: 4
blackgrass; [8]
  Plant response rating, Blackgrass: 9
Surinam grass; [1]
  B. signalgrass plant response rating: 2
Surinam grass; [2]
  B. signalgrass plant response rating: 6
Surinam grass; [3]
  Plant response rating, B. signalgrass: 0
Surinam grass; [4]
  Plant response rating, B. signalgrass: 2
Surinam grass; [5]
  B. signalgrass plant response rating: 4
Surinam grass; [6]
  B. signalgrass plant response rating: 0
Surinam grass; [7]
  B. signalgrass plant response rating: 5
Surinam grass; [8]
  Plant response rating, B. signalgrass: 8
corn; [1]
  Corn plant response rating: 0
corn; [2]
  Corn plant response rating: 0
corn; [3]
  Plant response rating, Corn: 0
corn; [4]
  Plant response rating, Corn: 0
corn; [5]
  Corn plant response rating: 0
corn; [6]
  Corn plant response rating: 0
corn; [7]
  Corn plant response rating: 0
corn; [8]
  Plant response rating, Corn: 0
Giant foxtail; [1]
  Giant foxtail plant response rating: 2
Giant foxtail; [2]
  Giant foxtail plant response rating: 7
Giant foxtail; [3]
  Plant response rating, Giant foxtail: 3
Giant foxtail; [4]
  Plant response rating, Giant foxtail: 8
Giant foxtail; [5]
  Giant foxtail plant response rating: 8
Giant foxtail; [6]
  Giant foxtail plant response rating: 0
Giant foxtail; [7]
  Giant foxtail plant response rating: 7
Giant foxtail; [8]
  Plant response rating, Giant foxtail: 8
morningglory; [1]
  Morningglory plant response rating: 0
morningglory; [2]
  Morningglory plant response rating: 0
morningglory; [3]
  Plant response rating, Morningglory: 0
morningglory; [4]
  Plant response rating, Morningglory: 0
morningglory; [5]
  Morningglory plant response rating: 0
morningglory; [6]
  Morningglory plant response rating: 0
morningglory; [7]
  Morningglory plant response rating: 0
morningglory; [8]
  Plant response rating, Morningglory: 2
pigweed; [1]
  Redroot pigweed plant response rating: 0
pigweed; [2]
  Redroot pigweed plant response rating: 0
pigweed; [3]
  Plant response rating, Redroot pigweed: 0
pigweed; [4]
  Plant response rating, Redroot pigweed: 0
pigweed; [5]
  Redroot pigweed plant response rating: 0
pigweed; [6]
  Redroot pigweed plant response rating: 0
pigweed; [7]
  Redroot pigweed plant response rating: 0
pigweed; [8]
  Plant response rating, Redroot pigweed: 3
rape; [1]
  Rape plant response rating: 0
rape; [2]
  Rape plant response rating: 1
rape; [3]
  Plant response rating, Rape: 0
rape; [4]
  Plant response rating, Rape: 0
rape; [5]
  Rape plant response rating: 0
rape; [6]
  Rape plant response rating: 0
rape; [7]
  Rape plant response rating: 1
rape; [8]
  Plant response rating, Rape: 0
soybean; [1]
  Soybean plant response rating: 2
soybean; [2]
  Soybean plant response rating: 3
soybean; [3]
  Plant response rating, Soybean: 0
soybean; [4]
  Plant response rating, Soybean: 0
soybean; [5]
  Soybean plant response rating: 0
soybean; [6]
  Soybean plant response rating: 1
soybean; [8]
  Plant response rating, Soybean: 0
Sugar beet; [1]
  Sugarbeets plant response rating: 0
Sugar beet; [2]
  Sugarbeets plant response rating: 0
Sugar beet; [3]
  Plant response rating, Sugarbeets: 0
Sugar beet; [4]
  Plant response rating, Sugarbeets: 0
Sugar beet; [5]
  Sugarbeets plant response rating: 0
Sugar beet; [6]
  Sugarbeets plant response rating: 0
Sugar beet; [8]
  Plant response rating, Sugarbeets: 0
velvetleaf; [1]
  Velvetleaf plant response rating: 0
velvetleaf; [2]
  Velvetleaf plant response rating: 0
velvetleaf; [3]
  Plant response rating, Velvetleaf: 0
velvetleaf; [4]
  Plant response rating, Velvetleaf: 0
velvetleaf; [5]
  Velvetleaf plant response rating: 0
velvetleaf; [6]
  Velvetleaf plant response rating: 0
velvetleaf; [8]
  Plant response rating, Velvetleaf: 2
Purple nutsedge; [1]
  Nutsedge plant response rating: 0
Purple nutsedge; [2]
  Nutsedge plant response rating: 0
Purple nutsedge; [3]
  Plant response rating, Nutsedge: 0
Purple nutsedge; [4]
  Plant response rating, Nutsedge: 0
Purple nutsedge; [5]
  Nutsedge plant response rating: 0
Purple nutsedge; [6]
  Nutsedge plant response rating: 0
Purple nutsedge; [7]
  Nutsedge plant response rating: 0
Purple nutsedge; [8]
  Plant response rating, Nutsedge: 0
rice; [2]
  Rice plant response rating: 0
rice; [9]
  Rice plant response rating: 0
rice; [10]
  Rice plant response rating: 0
rice; [11]
  Rice plant response rating: 0
Smallflower flatsedge; [2]
  S. Flatsedge plant response rating: 0
Smallflower flatsedge; [9]
  S. Flatsedge plant response rating: 0
Smallflower flatsedge; [11]
  S. Flatsedge plant response rating: 0
Duck salad; [2]
  Ducksalad plant response rating: 0
Duck salad; [9]
  Ducksalad plant response rating: 0
Duck salad; [10]
  Ducksalad plant response rating: 0
Duck salad; [11]
  Ducksalad plant response rating: 0
bamyardgrass; [2]
  Barnyardgrass plant response rating: 0
bamyardgrass; [9]
  Barnyardgrass plant response rating: 0
bamyardgrass; [10]
  Barnyardgrass plant response rating: 0
bamyardgrass; [11]
  Barnyardgrass plant response rating: 0
